In patent publication US8846933B2, “N-link hydroxamic acid derivatives useful as antibacterial agents” (Pfizer Inc., priority 2009, dated 2014):

Assays:
[1] = system: Escherichia coli EC-1: VOGEL, mouse virulent; experiment: MIC determination (CLSI), strain EC-1; assay type: cell-based; details: strain EC-1, unit assumed
Summary of the method: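 The mouse-virulent VOGEL isolate of E. coli, EC-1, served as test organism. Minimum inhibitory concentration was measured by CLSI dilution methodology (M7-A7; M100-S18 standards).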

[2] = system: Pseudomonas aeruginosa UI-18: Wild-type (PA-7); experiment: MIC determination (CLSI), strain PA-7; assay type: cell-based; details: strain PA-7, unit assumed
Summary of the method: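 MIC determined by broth dilution per CLSI M7-A7 guidelines with M100-S18 interpretive standards. Test organism: wild-type Pseudomonas aeruginosa UI-18, designated PA-7.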

[3] = generated in the same manner as in Table 4

| SMILES | EC-1 (MIC) [1] [µg/mL] | PA-7 (MIC) [2] [µg/mL] | EC-1 (MIC) [1, 3] [µg/mL] | PA-7 (MIC) [2, 3] [µg/mL] |
| --- | --- | --- | --- | --- |
| C[C@@](CCn1ccc(-c2ccc(Oc3nccc4occc34)cc2)cc1=O)(C(=O)NO)S(C)(=O)=O [Example 437, (2R)-4-{4-[4-(furo[3,2-c]pyridin-4-yloxy)phenyl]-2-oxopyridin-1(2H)-yl}-N-hydroxy-2-methyl-2-(methylsulfonyl)butanamide] | 0.25 | 4 |  |  |
| C[C@@](CCn1ccc(-c2ccc(OCCN3CCC(O)CC3)c(Cl)c2Cl)cc1=O)(C(=O)NO)S(C)(=O)=O [Example 303, (2R)-4-[4-{2,3-dichloro-4-[2-(4-hydroxypiperidin-1-yl)ethoxy]phenyl}-2-oxopyridin-1(2H)-yl]-N-hydroxy-2-methyl-2-(methylsulfonyl)butanamide] | 32 | 16 |  |  |
| C[C@@](CCn1ccc(-c2ccc(-n3nccn3)cc2F)cc1=O)(C(=O)NO)S(C)(=O)=O [Example 372] | 0.06 | 2 |  |  |
| Cc1c(-c2ccc(Cl)cc2F)ccn(CC[C@](C)(C(=O)NO)S(C)(=O)=O)c1=O [Example 394, (2R)-4-[4-(4-chloro-2-fluorophenyl)-3-methyl-2-oxopyridin-1(2H)-yl]-N-hydroxy-2-methyl-2-(methylsulfonyl)butanamide] | 1 | 1 |  |  |
| COc1cc(F)ccc1-c1ccn(CCC(C)(C(=O)NO)S(C)(=O)=O)c(=O)c1 (stereo not drawn) [Example 166, 4-[4-(4-fluoro-2-methoxyphenyl)-2-oxopyridin-1(2H)-yl]-N-hydroxy-2-methyl-2-(methylsulfonyl)butanamide] |  |  | 16 | 8 |
| CC(CCn1ccc(-c2cccc3cnccc23)cc1=O)(C(=O)NO)S(C)(=O)=O (stereo not drawn) [Example 215, N-hydroxy-4-(4-isoquinolin-5-yl-2-oxopyridin-1(2H)-yl)-2-methyl-2-(methylsulfonyl)butanamide] | > 64 | 64 |  |  |
| COc1ccc(-c2ccn(CC[C@](C)(C(=O)NO)S(C)(=O)=O)c(=O)c2)c(Cl)c1 [Example 342, (2R)-4-[4-(2-chloro-4-methoxyphenyl)-2-oxopyridin-1(2H)-yl]-N-hydroxy-2-methyl-2-(methylsulfonyl)butanamide] | 0.5 | 0.5 |  |  |
| CC(CCn1ccc(-c2cnn(Cc3ccccc3)c2)cc1=O)(C(=O)NO)S(C)(=O)=O (stereo not drawn) [Example 165, 4-[4-(1-benzyl-1H-pyrazol-4-yl)-2-oxopyridin-1(2H)-yl]-N-hydroxy-2-methyl-2-(methylsulfonyl)butanamide] |  |  | > 64 | > 64 |
| Cc1nnn(-c2ccc(-c3ccn(CC[C@](C)(C(=O)NO)S(C)(=O)=O)c(=O)c3)cc2)n1 [Example 379, (2R)-N-hydroxy-2-methyl-2-(methylsulfonyl)-4-{4-[4-(5-methyl-2H-tetrazol-2-yl)phenyl]-2-oxopyridin-1(2H)-yl}butanamide] | 0.5 | 2 |  |  |
| C[C@@](CCn1ccc(-c2ccc(OC(F)(F)F)cc2F)cc1=O)(C(=O)NO)S(C)(=O)=O [Example 354, (2R)-4-{4-[2-fluoro-4-(trifluoromethoxy)phenyl]-2-oxopyridin-1(2H)-yl}-N-hydroxy-2-methyl-2-(methylsulfonyl)butanamide] | 0.25 | 0.5 |  |  |
| C[C@@](CCn1ccc(-c2cnc(-c3ccccc3)o2)cc1=O)(C(=O)NO)S(C)(=O)=O [Example 474] | 64 | 64 |  |  |
| Cc1ccnc(-c2ccc(-c3ccn(CC[C@](C)(C(=O)NO)S(C)(=O)=O)c(=O)c3)cc2)n1 [Example 375, (2R)-N-hydroxy-2-methyl-4-{4-[4-(4-methylpyrimidin-2-yl)phenyl]-2-oxopyridin-1(2H)-yl}-2-(methylsulfonyl)butanamide] | 0.5 | 4 |  |  |
| C[C@@](CCn1ccc(-c2ccc(OC[C@H]3CC[C@H](O)CC3)c(F)c2)cc1=O)(C(=O)NO)S(C)(=O)=O [Example 318, (2R)-4-[4-{3-fluoro-4-[(trans-4-hydroxycyclohexyl)methoxy]phenyl}-2-oxopyridin-1(2H)-yl]-N-hydroxy-2-methyl-2-(methylsulfonyl)butanamide] | 0.25 | 1 |  |  |
| CC(CCn1ccc(-c2ccc(OCC3CCCO3)cc2)cc1=O)(C(=O)NO)S(C)(=O)=O (mixture of isomers) [Example 462] | 0.5 | 1 |  |  |
| Cc1cn(-c2ccc(-c3ccn(CC[C@](C)(C(=O)NO)S(C)(=O)=O)c(=O)c3)cc2)nn1 [Example 377, (2R)-N-hydroxy-2-methyl-2-(methylsulfonyl)-4-{4-[4-(4-methyl-1H-1,2,3-triazol-1-yl)phenyl]-2-oxopyridin-1(2H)-yl}butanamide] | 8 | 8 |  |  |
| CC(=O)c1ccc(-c2ccn(CCC(C)(C(=O)NO)S(C)(=O)=O)c(=O)c2)cc1O (stereo not drawn) [Example 99, 4-[4-(4-acetyl-3-hydroxyphenyl)-2-oxopyridin-1(2H)-yl]-N-hydroxy-2-methyl-2-(methylsulfonyl)butanamide] |  |  | 8 | 16 |
| Cn1ccnc1-c1ccc(-c2ccn(CC[C@](C)(C(=O)NO)S(C)(=O)=O)c(=O)c2)cc1 [Example 363, (2R)-N-hydroxy-2-methyl-4-{4-[4-(1-methyl-1H-imidazol-2-yl)phenyl]-2-oxopyridin-1(2H)-yl}-2-(methylsulfonyl)butanamide] | 32 | 64 |  |  |
| COc1ccc(-c2ccc(-c3ccn(CC[C@](C)(C(=O)NO)S(C)(=O)=O)c(=O)c3)cc2)cn1 [Example 310, (2R)-N-hydroxy-4-{4-[4-(6-methoxypyridin-3-yl)phenyl]-2-oxopyridin-1(2H)-yl}-2-methyl-2-(methylsulfonyl)butanamide] | 0.125 | 0.5 |  |  |
| CC(CCn1ccc(-c2ccc(OCCO)c(F)c2)cc1=O)(C(=O)NO)S(C)(=O)=O (stereo not drawn) [Example 76, 4-{4-[3-fluoro-4-(2-hydroxyethoxy)phenyl]-2-oxopyridin-1(2H)-yl}-N-hydroxy-2-methyl-2-(methylsulfonyl)butanamide] |  |  | 16 | 32 |
| CC(CCn1ccc(-c2ccc(C#N)c(F)c2)cc1=O)(C(=O)NO)S(C)(=O)=O (stereo not drawn) [Example 207, 4-[4-(4-cyano-3-fluorophenyl)-2-oxopyridin-1(2H)-yl]-N-hydroxy-2-methyl-2-(methylsulfonyl)butanamide] | 16 | 16 |  |  |
| CC(C)(CO)c1ccc(-c2ccn(CC[C@](C)(C(=O)NO)S(C)(=O)=O)c(=O)c2)cc1 [Example 350, (2R)-N-hydroxy-4-{4-[4-(2-hydroxy-1,1-dimethylethyl)phenyl]-2-oxopyridin-1(2H)-yl}-2-methyl-2-(methylsulfonyl)butanamide] | 16 | 16 |  |  |
| CC(CCn1ccc(-c2ccc(Br)cc2F)cc1=O)(C(=O)NO)S(C)(=O)=O (stereo not drawn) [Example 283, 4-[4-(4-bromo-2-fluorophenyl)-2-oxopyridin-1(2H)-yl]-N-hydroxy-2-methyl-2-(methylsulfonyl)butanamide] | 0.25 | 1 |  |  |
| Cc1cccc(-c2ccn(CCC(C)(C(=O)NO)S(C)(=O)=O)c(=O)c2)c1C (stereo not drawn) [Example 257, 4-[4-(2,3-dimethylphenyl)-2-oxopyridin-1(2H)-yl]-N-hydroxy-2-methyl-2-(methylsulfonyl)butanamide] | 4 | 2 |  |  |
| C[C@@](CCn1ccc(-c2ccc(Oc3ncccn3)cc2)cc1=O)(C(=O)NO)S(C)(=O)=O [Example 424, (2R)-N-hydroxy-2-methyl-2-(methylsulfonyl)-4-{2-oxo-4-[4-(pyrimidin-2-yloxy)phenyl]pyridin-1(2H)-yl}butanamide] | 4 | 4 |  |  |
| COc1ccc(-c2ccn(CCC(C)(C(=O)NO)S(C)(=O)=O)c(=O)c2)cc1OC (stereo not drawn) [Example 138, 4-[4-(3,4-dimethoxyphenyl)-2-oxopyridin-1(2H)-yl]-N-hydroxy-2-methyl-2-(methylsulfonyl)butanamide] |  |  | 64 | 64 |
| CC(CCn1ccc(-c2ccc(-c3cc(CO)no3)cc2)cc1=O)(C(=O)NO)S(C)(=O)=O (stereo not drawn) [Example 95, N-hydroxy-4-[4-{4-[3-(hydroxymethyl)isoxazol-5-yl]phenyl}-2-oxopyridin-1(2H)-yl]-2-methyl-2-(methylsulfonyl)butanamide] |  |  | 8 | 8 |
| CC(C)NC(=O)c1ccc(-c2ccn(CCC(C)(C(=O)NO)S(C)(=O)=O)c(=O)c2)cc1 (stereo not drawn) [Example 146, 4-{1-[4-(hydroxyamino)-3-methyl-3-(methylsulfonyl)-4-oxobutyl]-2-oxo-1,2-dihydropyridin-4-yl}-N-isopropylbenzamide] |  |  | > 64 | > 64 |
| CC(CCn1ccc(-c2ccc(OCCCCO)cc2)cc1=O)(C(=O)NO)S(C)(=O)=O (stereo not drawn) [Example 75, N-hydroxy-4-{4-[4-(4-hydroxybutoxy)phenyl]-2-oxopyridin-1(2H)-yl}-2-methyl-2-(methylsulfonyl)butanamide] |  |  | 2 | 4 |
| C[C@@](CCn1ccc(-c2ccc(-c3cocn3)cc2)cc1=O)(C(=O)NO)S(C)(=O)=O [Example 389, (2R)-N-hydroxy-2-methyl-2-(methylsulfonyl)-4-{4-[4-(1,3-oxazol-4-yl)phenyl]-2-oxopyridin-1(2H)-yl}butanamide] | 1 | 1 |  |  |
| C[C@@](CCn1ccc(-c2ccc(OCCCCO)cc2)cc1=O)(C(=O)NO)S(C)(=O)=O [Example 279, (2R)-N-hydroxy-4-{4-[4-(4-hydroxybutoxy)phenyl]-2-oxopyridin-1(2H)-yl}-2-methyl-2-(methylsulfonyl)butanamide] | 0.5 | 1 |  |  |
